Experimental data as given in patent US20050147989A1 (priority 2003, published 2005).

Molecular target: association reaction between recombinantly prepared mouse PrP (amino acids 23-231) and PrP-Sc aggregates prepared from the brain tissue of CJD patients (UniProt P04156+P04925)
Type: binding, human PrP-Sc (CJD patients); mouse PrP
Details: for influence on association of fluorescence-labeled recombinant PrP to prion aggregates: SIFT, 20 mM potassium phosphate buffer, pH 6.0, 0.1% Nonidet-P40

SMILES | influence on association of fluorescence-labeled recombinant PrP to prion aggregates | number of bins per sector in two-dimensional histograms of the fluorescence intensity (FIG. 4, two-dimensional SIFT evaluation by sectors)
CCCCCCCC/C=C\CCCCCCCC(=O)OC[C@H](COP(=O)(O)OCCN)OC(=O)CCCCCCC/C=C\CCCCCCCC [DOPE, dioleyl-L-phosphatidylethanolamine] | no influence on aggregation was found | –
CCCCCCCC/C=C\CCCCCCCCOCC(C[N+](C)(C)CCNC(=O)C(CCCNCCCN)NCCCN)OCCCCCCCC/C=C\CCCCCCCC.O=C([O-])C(F)(F)F (stereo not drawn) [DOSPA, 2,3-dioleyloxy-N-[2-(sperminecarboxamido)ethyl]-N,N-dimethyl-1-propanaminium trifluoroacetate] | inhibits the association of fluorescence-labeled recombinant PrP to prion aggregates at low micromolar concentrations | number of bins is decreased in sectors 1 to 9
